In brackets after ≈: the same amount, converted by molar mass. Activity calls are given as the source filed them. No cut-off for these calls is given here.
Experiments:
[1] = Toxicity in sixth development stage of Galleria mellonella larvae assessed as survival rate at 10 ug/ml after 24 hrs; assay type: organism-based; conditions: in vivo
Staphylococcus aureus [2] = test: Antibacterial activity against Staphylococcus aureus NCIMB 12702 after 24 hrs by serial dilution method; assay type: functional; conditions: Staphylococcus aureus, NCIMB 12702, 24 h
Staphylococcus aureus [3] = test: Antibacterial activity against methicillin-resistant Staphylococcus aureus after 24 hrs by serial dilution method; assay type: functional
Escherichia coli = test: Antibacterial activity against Escherichia coli NCIMB 9485 after 24 hrs by serial dilution method; assay type: functional; conditions: NCIMB 9485, 24 h
[4] = Toxicity in sixth development stage of Galleria mellonella larvae assessed as survival rate at 50 ug/ml after 48 hrs; assay type: organism-based; conditions: in vivo
[5] = Toxicity in sixth development stage of Galleria mellonella larvae assessed as survival rate at 1000 ug/ml after 48 hrs; assay type: organism-based; conditions: in vivo
[6] = Toxicity in sixth development stage of Galleria mellonella larvae assessed as survival rate at 10 ug/ml after 72 hrs; assay type: organism-based; conditions: in vivo
[7] = Toxicity in sixth development stage of Galleria mellonella larvae assessed as survival rate at 1 ug/ml after 48 hrs; assay type: organism-based; conditions: in vivo
[8] = Toxicity in sixth development stage of Galleria mellonella larvae assessed as survival rate at 100 ug/ml after 24 hrs; assay type: organism-based; conditions: in vivo
[9] = Toxicity in sixth development stage of Galleria mellonella larvae assessed as survival rate at 10 ug/ml after 48 hrs; assay type: organism-based; conditions: in vivo
Galleria mellonella = test: Toxicity in sixth development stage of Galleria mellonella larvae assessed as larvae pupation at 1 to 1000 ug/ml after 7 days relative to control; assay type: organism-based; conditions: in vivo, 168 h
[10] = Toxicity in sixth development stage of Galleria mellonella larvae assessed as survival rate at 50 ug/ml after 24 hrs; assay type: organism-based; conditions: in vivo
[11] = Toxicity in sixth development stage of Galleria mellonella larvae assessed as survival rate at 1 ug/ml after 72 hrs; assay type: organism-based; conditions: in vivo
[12] = Toxicity in sixth development stage of Galleria mellonella larvae assessed as survival rate at 100 ug/ml after 48 hrs; assay type: organism-based; conditions: in vivo
[13] = Toxicity in sixth development stage of Galleria mellonella larvae assessed as survival rate at 50 ug/ml after 72 hrs; assay type: organism-based; conditions: in vivo
Pseudomonas aeruginosa = test: Antibacterial activity against Pseudomonas aeruginosa ATCC 10145 after 24 hrs by serial dilution method; assay type: functional, organism-based
[14] = Toxicity in sixth development stage of Galleria mellonella larvae assessed as survival rate at 1000 ug/ml after 24 hrs; assay type: organism-based; conditions: in vivo
[15] = Toxicity in sixth development stage of Galleria mellonella larvae assessed as survival rate at 1000 ug/ml after 72 hrs; assay type: organism-based; conditions: in vivo
[16] = Toxicity in sixth development stage of Galleria mellonella larvae assessed as survival rate at 1 ug/ml after 24 hrs; assay type: organism-based; conditions: in vivo
[17] = Toxicity in sixth development stage of Galleria mellonella larvae assessed as survival rate at 100 ug/ml after 72 hrs; assay type: organism-based; conditions: in vivo

C=C[C@H]1CN2CC[C@H]1C[C@H]2CNC(=S)Nc1cc(C(F)(F)F)cc(C(F)(F)F)c1
survival at 24 h [1]: 100% | MIC50 (Staphylococcus aureus [2]): 42.9 µM (≈ 18.8 µg/mL) | MIC80 (Staphylococcus aureus [2]): 85.8 µM (≈ 37.5 µg/mL) | MIC90 (Staphylococcus aureus [2]): 85.8 µM (≈ 37.5 µg/mL) | MIC50 (Staphylococcus aureus [3]): 20.7 µM (≈ 9.07 µg/mL) | MIC90 (Staphylococcus aureus [3]): 31.4 µM (≈ 13.8 µg/mL) | MIC50 (Escherichia coli): 42.9 µM (≈ 18.8 µg/mL) | MIC80 (Escherichia coli): 85.8 µM (≈ 37.5 µg/mL) | MIC90 (Escherichia coli): 85.8 µM (≈ 37.5 µg/mL) | survival at 48 h [4]: 100% | survival at 48 h [5]: 100% | survival at 72 h [6]: 100% | survival at 48 h [7]: 100% | survival at 24 h [8]: 100% | survival at 48 h [9]: 100% | Activity (Galleria mellonella): Non-toxic | survival at 24 h [10]: 100% | survival at 72 h [11]: 100% | survival at 48 h [12]: 100% | survival at 72 h [13]: 100% | MIC (Pseudomonas aeruginosa): inactive | survival at 24 h [14]: 100% | survival at 72 h [15]: 100% | survival at 24 h [16]: 100% | survival at 72 h [17]: 100%

CCNC(=S)Nc1cc(C(F)(F)F)cc(C(F)(F)F)c1
MIC50 (Staphylococcus aureus [2]): > 316 µM | MIC90 (Staphylococcus aureus [2]): > 316 µM | MIC50 (Escherichia coli): 158 µM (≈ 50 µg/mL) | MIC90 (Escherichia coli): > 316 µM | MIC (Pseudomonas aeruginosa): inactive

C=C[C@H]1CN2CC[C@H]1C[C@H]2[C@@H](NC(=S)Nc1ccccc1)c1ccnc2ccc(OC)cc12
survival at 24 h [1]: 100% | MIC50 (Staphylococcus aureus [2]): 54.6 µM (≈ 25 µg/mL) | MIC90 (Staphylococcus aureus [2]): 164 µM (≈ 75.1 µg/mL) | MIC50 (Escherichia coli): 40.9 µM (≈ 18.8 µg/mL) | MIC90 (Escherichia coli): 81.8 µM (≈ 37.5 µg/mL) | survival at 48 h [4]: 100% | survival at 48 h [5]: 100% | survival at 72 h [6]: 100% | survival at 48 h [7]: 100% | survival at 24 h [8]: 100% | survival at 48 h [9]: 100% | Activity (Galleria mellonella): Non-toxic | survival at 24 h [10]: 100% | survival at 72 h [11]: 100% | survival at 48 h [12]: 100% | survival at 72 h [13]: 100% | MIC (Pseudomonas aeruginosa): inactive | survival at 24 h [14]: 100% | survival at 72 h [15]: 100% | survival at 24 h [16]: 100% | survival at 72 h [17]: 100%

COC(=O)[C@@H]1C[C@H](NC(=S)Nc2cc(C(F)(F)F)cc(C(F)(F)F)c2)CN1
MIC90 (Staphylococcus aureus [2]): > 200 µM | MIC90 (Escherichia coli): > 200 µM | MIC (Pseudomonas aeruginosa): inactive

C=CC1CN2CCC1CC2[C@@H](Oc1cc(C)c2ccccc2n1)c1ccnc2ccc(OC)cc12 (stereo partly drawn)
MIC90 (Staphylococcus aureus [2]): 115 µM (≈ 53.5 µg/mL) | MIC90 (Escherichia coli): > 200 µM | MIC (Pseudomonas aeruginosa): inactive

CN[C@@H](CC(C)C)C(=O)N[C@H]1C(=O)N[C@@H](CC(N)=O)C(=O)N[C@H]2C(=O)N[C@H]3C(=O)N[C@H](C(=O)N[C@@H](C(=O)O)c4cc(O)cc(O)c4-c4cc3ccc4O)[C@H](O)c3ccc(c(Cl)c3)Oc3cc2cc(c3O[C@H]2O[C@@H](CO)[C@H](O)[C@@H](O)[C@@H]2O[C@@H]2C[C@@](C)(N)[C@@H](O)[C@@H](C)O2)Oc2ccc(cc2Cl)[C@H]1O
MIC50 (Staphylococcus aureus [2]): 1.58 µM (≈ 2.29 µg/mL) | MIC80 (Staphylococcus aureus [2]): 3.16 µM (≈ 4.58 µg/mL) | MIC90 (Staphylococcus aureus [2]): 4.21 µM (≈ 6.1 µg/mL) | MIC50 (Escherichia coli): 1.58 µM (≈ 2.29 µg/mL) | MIC80 (Escherichia coli): 2.1 µM (≈ 3.04 µg/mL) | MIC90 (Escherichia coli): 4.21 µM (≈ 6.1 µg/mL)

From ChEMBL document CHEMBL3745710, “Synthesis, antibacterial and anti-MRSA activity, in vivo toxicity and a structure-activity relationship study of a quinoline thiourea” (Bioorg Med Chem Lett, 2016)
